According to ChEMBL document CHEMBL4507319 (2021):

Key:
[1] = molecular target: Ribosomal protein S6 kinase alpha-3 (Homo sapiens, UniProt P51812); conditions: Compound concentration 1.0 uM
[2] = molecular target: Dual specificity mitogen-activated protein kinase kinase 2 (Homo sapiens) (UniProt P36507); assay: MEK2(h) Eurofins kinase panel; conditions: Compound concentration 1.0 uM
[3] = molecular target: Protein kinase C zeta type (Homo sapiens) (UniProt Q05513); assay: PKCzeta(h) Eurofins kinase panel; conditions: Compound concentration 1.0 uM
[4] = molecular target: G protein-coupled receptor kinase 6 (Homo sapiens) (UniProt P43250); assay: GRK6(h) Eurofins kinase panel; conditions: Compound concentration 1.0 uM
[5] = molecular target: Mitogen-activated protein kinase 14 (Homo sapiens) (UniProt Q16539); assay: SAPK2a(h) Eurofins kinase panel; conditions: Compound concentration 1.0 uM
[6] = molecular target: Insulin receptor-related protein (Homo sapiens) (UniProt P14616); assay: IRR(h) Eurofins kinase panel; conditions: Compound concentration 1.0 uM
[7] = molecular target: Calcium/calmodulin-dependent protein kinase kinase 2 (Homo sapiens) (UniProt Q96RR4); assay: CaMKK2(h) Eurofins kinase panel; conditions: Compound concentration 1.0 uM
[8] = molecular target: T1, Ephrin type-A receptor 1 (Homo sapiens) (UniProt P21709); assay: EphA1(h) Eurofins kinase panel; conditions: Compound concentration 1.0 uM
T1 sequence (whole entry): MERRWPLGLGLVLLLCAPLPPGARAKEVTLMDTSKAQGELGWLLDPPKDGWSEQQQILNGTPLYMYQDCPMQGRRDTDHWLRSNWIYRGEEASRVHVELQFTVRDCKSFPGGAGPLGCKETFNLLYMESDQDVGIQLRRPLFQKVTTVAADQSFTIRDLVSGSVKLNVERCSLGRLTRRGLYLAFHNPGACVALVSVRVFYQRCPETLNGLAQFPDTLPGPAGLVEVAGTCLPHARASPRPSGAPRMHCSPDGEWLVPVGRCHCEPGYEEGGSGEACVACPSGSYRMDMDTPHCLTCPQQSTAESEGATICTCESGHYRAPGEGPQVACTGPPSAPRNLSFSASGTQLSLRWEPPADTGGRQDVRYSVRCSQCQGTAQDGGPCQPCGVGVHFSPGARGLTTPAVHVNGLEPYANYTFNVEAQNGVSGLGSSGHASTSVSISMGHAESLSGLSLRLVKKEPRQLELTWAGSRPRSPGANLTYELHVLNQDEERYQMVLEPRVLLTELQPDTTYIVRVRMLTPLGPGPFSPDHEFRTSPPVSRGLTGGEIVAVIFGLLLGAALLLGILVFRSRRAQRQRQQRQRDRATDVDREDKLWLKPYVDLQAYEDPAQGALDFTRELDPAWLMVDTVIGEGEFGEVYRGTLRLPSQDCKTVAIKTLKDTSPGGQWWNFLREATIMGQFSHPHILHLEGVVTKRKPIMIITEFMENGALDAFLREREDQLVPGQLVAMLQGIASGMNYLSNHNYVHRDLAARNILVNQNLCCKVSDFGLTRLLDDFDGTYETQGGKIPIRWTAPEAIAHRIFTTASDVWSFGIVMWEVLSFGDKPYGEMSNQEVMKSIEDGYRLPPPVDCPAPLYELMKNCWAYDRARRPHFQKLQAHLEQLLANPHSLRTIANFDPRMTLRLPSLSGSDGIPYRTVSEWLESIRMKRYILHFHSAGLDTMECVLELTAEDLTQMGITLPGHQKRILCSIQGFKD

[9] = molecular target: [Pyruvate dehydrogenase (acetyl-transferring)] kinase isozyme 4, mitochondrial (Homo sapiens) (UniProt Q16654); assay: PDHK4(h) Eurofins kinase panel; conditions: Compound concentration 1.0 uM
[10] = molecular target: SRSF protein kinase 2 (Homo sapiens) (UniProt P78362); assay: SRPK2(h) Eurofins kinase panel; conditions: Compound concentration 1.0 uM
[11] = molecular target: T2, Serine/threonine-protein kinase Nek11 (Homo sapiens) (UniProt Q8NG66); assay: NEK11(h) Eurofins kinase panel; conditions: Compound concentration 1.0 uM
T2 sequence (whole entry): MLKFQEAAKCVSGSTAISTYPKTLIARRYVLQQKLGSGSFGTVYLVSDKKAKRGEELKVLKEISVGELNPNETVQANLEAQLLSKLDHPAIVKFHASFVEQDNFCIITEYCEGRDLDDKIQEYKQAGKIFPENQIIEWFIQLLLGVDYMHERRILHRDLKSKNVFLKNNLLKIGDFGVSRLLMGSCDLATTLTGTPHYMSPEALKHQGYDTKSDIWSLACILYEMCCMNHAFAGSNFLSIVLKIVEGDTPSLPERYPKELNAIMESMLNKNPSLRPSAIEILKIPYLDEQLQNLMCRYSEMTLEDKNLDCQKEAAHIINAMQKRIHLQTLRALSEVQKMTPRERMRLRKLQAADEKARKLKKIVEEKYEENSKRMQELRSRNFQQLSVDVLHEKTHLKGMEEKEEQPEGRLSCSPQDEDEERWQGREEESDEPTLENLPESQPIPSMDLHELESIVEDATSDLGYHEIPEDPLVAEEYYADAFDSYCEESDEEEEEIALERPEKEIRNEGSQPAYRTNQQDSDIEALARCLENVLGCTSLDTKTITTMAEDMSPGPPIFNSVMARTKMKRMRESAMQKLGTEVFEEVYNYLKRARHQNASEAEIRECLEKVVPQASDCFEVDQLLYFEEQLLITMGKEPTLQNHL

LP-1 = assay: LP-1 cell line Proliferation assay; type: functional, Homo sapiens; conditions: time 3 day
[12] = molecular target: Serine/threonine-protein kinase pim-2 (Homo sapiens) (UniProt Q9P1W9); assay: Pim-2(h) Eurofins kinase panel; conditions: Compound concentration 1.0 uM
[13] = molecular target: Tyrosine-protein kinase HCK (Homo sapiens) (UniProt P08631); assay: Hck(h) Eurofins kinase panel; conditions: Compound concentration 1.0 uM
[14] = molecular target: Proto-oncogene tyrosine-protein kinase ROS (Homo sapiens) (UniProt P08922); assay: Ros(h) Eurofins kinase panel; conditions: Compound concentration 1.0 uM
[15] = molecular target: Receptor-type tyrosine-protein kinase FLT3 (Homo sapiens) (UniProt P36888); conditions: Compound concentration 1.0 uM
[16] = molecular target: ALK tyrosine kinase receptor (Homo sapiens) (UniProt Q9UM73); assay: ALK(h) Eurofins kinase panel; conditions: Compound concentration 1.0 uM
[17] = molecular target: Protein kinase C eta type (Homo sapiens) (UniProt P24723); assay: PKCeta (h) Eurofins kinase panel; conditions: Compound concentration 1.0 uM
[18] = molecular target: Cyclin-dependent kinase 1/cyclin B (Homo sapiens) (UniProt P06493+P14635+Q8WWL7+O95067); assay: CDK1/cyclinB(h) Eurofins kinase panel; type: protein-complex assay; conditions: Compound concentration 1.0 uM
PANC-1 = assay: PANC-1 cell line Proliferation assay; type: functional, Homo sapiens; conditions: time 3 day
[19] = molecular target: Rho-associated protein kinase 1 (Homo sapiens) (UniProt Q13464); assay: ROCK-I(h) Eurofins kinase panel; conditions: Compound concentration 1.0 uM

Chain of Mitogen-activated protein kinase 14 (Homo sapiens) (Q16539 whole entry): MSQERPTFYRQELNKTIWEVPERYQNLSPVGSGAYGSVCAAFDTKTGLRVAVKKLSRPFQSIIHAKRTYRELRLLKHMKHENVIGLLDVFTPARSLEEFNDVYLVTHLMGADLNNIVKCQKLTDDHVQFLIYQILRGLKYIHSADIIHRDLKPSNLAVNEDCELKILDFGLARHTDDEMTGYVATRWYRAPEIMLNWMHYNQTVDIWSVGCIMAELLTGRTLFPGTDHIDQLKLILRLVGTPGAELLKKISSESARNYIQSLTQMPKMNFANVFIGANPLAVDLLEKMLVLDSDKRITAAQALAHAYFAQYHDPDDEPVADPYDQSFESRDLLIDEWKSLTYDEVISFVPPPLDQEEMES
Chain of SRSF protein kinase 2 (Homo sapiens) (P78362 whole entry, looked up): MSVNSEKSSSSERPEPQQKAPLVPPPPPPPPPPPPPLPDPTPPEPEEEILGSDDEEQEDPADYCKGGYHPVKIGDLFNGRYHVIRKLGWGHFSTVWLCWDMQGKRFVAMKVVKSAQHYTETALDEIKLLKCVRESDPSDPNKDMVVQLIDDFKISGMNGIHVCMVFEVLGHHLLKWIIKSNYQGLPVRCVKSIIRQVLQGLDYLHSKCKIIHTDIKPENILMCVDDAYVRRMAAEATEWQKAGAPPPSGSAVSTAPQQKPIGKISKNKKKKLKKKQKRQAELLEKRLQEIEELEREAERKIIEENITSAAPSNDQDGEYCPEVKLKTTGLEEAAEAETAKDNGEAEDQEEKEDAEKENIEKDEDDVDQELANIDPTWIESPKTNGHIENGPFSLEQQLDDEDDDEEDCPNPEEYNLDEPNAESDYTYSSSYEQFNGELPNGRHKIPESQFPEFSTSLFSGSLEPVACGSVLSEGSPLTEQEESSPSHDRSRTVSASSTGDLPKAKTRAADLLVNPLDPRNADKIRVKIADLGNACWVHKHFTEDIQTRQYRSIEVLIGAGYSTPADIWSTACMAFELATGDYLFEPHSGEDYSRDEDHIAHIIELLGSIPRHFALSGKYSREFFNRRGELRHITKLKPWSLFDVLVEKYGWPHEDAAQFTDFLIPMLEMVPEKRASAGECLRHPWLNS
Chain of [Pyruvate dehydrogenase (acetyl-transferring)] kinase isozyme 4, mitochondrial (Homo sapiens) (Q16654 whole entry, looked up): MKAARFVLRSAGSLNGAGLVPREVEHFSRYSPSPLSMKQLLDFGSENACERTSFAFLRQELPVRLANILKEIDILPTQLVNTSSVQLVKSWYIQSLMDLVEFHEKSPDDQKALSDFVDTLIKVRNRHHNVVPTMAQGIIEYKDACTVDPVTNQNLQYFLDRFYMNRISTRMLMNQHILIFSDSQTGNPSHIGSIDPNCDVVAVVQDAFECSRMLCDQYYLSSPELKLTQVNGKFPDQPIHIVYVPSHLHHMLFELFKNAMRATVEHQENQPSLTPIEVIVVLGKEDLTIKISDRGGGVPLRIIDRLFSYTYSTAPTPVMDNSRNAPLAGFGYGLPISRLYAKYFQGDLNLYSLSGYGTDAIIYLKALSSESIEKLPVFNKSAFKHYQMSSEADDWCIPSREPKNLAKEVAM
Chain of Insulin receptor-related protein (Homo sapiens) (P14616 27-742 limits assumed): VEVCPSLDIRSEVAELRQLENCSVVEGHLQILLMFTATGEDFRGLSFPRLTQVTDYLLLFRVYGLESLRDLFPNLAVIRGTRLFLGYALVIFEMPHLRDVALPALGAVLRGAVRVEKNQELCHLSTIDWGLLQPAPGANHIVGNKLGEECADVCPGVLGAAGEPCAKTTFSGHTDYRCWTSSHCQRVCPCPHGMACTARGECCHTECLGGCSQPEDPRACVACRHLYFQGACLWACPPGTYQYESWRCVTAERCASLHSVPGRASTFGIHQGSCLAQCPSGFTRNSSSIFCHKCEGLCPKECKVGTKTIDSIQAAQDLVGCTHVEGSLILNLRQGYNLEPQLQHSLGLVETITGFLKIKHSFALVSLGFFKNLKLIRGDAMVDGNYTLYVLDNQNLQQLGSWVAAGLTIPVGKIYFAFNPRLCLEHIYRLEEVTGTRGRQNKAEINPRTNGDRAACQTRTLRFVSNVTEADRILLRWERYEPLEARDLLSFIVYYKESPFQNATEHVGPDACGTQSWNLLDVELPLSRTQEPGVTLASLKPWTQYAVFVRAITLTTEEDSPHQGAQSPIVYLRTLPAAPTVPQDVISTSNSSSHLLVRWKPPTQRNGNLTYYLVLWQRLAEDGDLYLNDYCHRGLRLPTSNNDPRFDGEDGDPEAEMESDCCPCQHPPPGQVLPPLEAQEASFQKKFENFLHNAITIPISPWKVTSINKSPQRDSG
Chain of Insulin receptor-related protein (Homo sapiens) (P14616 747-1297 limits assumed): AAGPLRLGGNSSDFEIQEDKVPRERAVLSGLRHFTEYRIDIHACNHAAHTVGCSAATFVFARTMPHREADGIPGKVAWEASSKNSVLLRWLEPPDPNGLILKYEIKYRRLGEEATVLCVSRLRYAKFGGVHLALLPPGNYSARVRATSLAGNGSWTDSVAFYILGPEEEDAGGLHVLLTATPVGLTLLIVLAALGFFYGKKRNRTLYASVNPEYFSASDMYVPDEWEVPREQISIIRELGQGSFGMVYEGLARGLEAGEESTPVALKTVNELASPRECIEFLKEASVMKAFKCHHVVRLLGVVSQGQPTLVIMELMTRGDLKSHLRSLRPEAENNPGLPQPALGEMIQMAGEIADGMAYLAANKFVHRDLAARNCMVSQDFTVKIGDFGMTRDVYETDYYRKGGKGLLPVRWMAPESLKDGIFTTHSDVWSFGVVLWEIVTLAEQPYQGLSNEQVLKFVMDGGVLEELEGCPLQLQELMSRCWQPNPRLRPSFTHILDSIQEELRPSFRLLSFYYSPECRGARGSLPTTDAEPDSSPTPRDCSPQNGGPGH
Chain of Dual specificity mitogen-activated protein kinase kinase 2 (Homo sapiens) (P36507 whole entry): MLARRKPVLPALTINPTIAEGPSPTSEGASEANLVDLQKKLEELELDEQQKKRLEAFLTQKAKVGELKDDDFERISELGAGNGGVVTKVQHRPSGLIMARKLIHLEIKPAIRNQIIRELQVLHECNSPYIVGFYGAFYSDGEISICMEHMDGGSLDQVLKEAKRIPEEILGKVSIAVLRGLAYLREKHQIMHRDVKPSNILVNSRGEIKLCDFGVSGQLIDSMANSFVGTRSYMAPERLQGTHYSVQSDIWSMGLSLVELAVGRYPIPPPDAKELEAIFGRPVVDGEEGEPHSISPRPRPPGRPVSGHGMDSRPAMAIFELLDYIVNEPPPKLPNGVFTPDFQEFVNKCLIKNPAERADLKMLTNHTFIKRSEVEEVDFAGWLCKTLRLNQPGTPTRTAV
Chain of G protein-coupled receptor kinase 6 (Homo sapiens) (P43250 whole entry, looked up): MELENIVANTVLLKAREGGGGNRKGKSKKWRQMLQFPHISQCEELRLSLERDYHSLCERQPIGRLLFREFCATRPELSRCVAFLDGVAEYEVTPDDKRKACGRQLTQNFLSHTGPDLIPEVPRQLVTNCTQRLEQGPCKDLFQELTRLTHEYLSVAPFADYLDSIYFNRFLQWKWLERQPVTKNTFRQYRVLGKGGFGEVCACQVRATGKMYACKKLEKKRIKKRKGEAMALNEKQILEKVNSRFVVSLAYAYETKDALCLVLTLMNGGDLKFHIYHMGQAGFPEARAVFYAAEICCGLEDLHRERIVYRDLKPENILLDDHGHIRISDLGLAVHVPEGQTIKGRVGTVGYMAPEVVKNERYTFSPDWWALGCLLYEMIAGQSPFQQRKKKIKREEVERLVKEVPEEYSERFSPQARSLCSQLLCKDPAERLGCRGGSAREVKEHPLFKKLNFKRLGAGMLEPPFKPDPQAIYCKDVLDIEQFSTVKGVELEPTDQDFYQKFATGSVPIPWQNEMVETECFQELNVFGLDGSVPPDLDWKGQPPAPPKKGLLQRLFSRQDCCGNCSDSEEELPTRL
Chain of Protein kinase C eta type (Homo sapiens) (P24723 whole entry): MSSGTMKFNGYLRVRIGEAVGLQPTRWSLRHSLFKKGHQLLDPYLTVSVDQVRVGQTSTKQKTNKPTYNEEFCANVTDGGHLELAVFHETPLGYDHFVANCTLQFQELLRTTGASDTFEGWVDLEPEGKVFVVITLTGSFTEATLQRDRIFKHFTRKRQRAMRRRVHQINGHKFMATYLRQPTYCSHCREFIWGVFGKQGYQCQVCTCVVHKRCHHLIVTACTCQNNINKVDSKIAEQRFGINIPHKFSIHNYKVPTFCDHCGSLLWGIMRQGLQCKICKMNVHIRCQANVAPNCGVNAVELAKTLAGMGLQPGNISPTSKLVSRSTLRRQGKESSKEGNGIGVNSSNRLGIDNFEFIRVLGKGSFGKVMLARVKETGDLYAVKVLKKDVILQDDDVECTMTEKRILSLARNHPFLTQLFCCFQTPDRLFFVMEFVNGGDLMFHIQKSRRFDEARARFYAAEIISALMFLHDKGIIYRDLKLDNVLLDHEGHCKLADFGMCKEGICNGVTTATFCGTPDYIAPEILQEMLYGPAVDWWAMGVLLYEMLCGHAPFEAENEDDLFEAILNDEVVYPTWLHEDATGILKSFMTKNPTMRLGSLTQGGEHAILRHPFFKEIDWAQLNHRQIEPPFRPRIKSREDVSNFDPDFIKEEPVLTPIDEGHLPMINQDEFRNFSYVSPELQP
Chain of Calcium/calmodulin-dependent protein kinase kinase 2 (Homo sapiens) (Q96RR4 2-588 limits assumed): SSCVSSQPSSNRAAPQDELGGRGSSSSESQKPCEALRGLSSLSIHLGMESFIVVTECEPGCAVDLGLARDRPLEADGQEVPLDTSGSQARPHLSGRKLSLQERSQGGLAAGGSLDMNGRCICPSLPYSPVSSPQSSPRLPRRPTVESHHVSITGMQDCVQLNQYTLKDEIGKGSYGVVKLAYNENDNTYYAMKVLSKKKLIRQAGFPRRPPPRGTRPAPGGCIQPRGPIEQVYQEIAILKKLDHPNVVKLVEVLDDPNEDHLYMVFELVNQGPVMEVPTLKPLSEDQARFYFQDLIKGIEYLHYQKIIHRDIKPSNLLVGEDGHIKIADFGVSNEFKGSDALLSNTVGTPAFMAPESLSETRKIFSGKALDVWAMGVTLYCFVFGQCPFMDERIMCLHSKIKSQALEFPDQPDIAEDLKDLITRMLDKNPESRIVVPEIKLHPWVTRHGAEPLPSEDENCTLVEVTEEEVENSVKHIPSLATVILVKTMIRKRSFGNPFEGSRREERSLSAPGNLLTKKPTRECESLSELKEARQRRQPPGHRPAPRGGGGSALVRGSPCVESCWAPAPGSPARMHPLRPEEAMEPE

CCc1ccccc1C(=O)Nc1n[nH]c2c(C)c(F)c(C3C(C#N)=C(C)N(C)C(C)=C3C#N)cc12 [BAY-3827]
% residual kinase activity [1]: 0% | % residual kinase activity [2]: 112% | % residual kinase activity [3]: 99% | % residual kinase activity [4]: 96% | % residual kinase activity [5]: 101% | % residual kinase activity [6]: 101% | % residual kinase activity [7]: 101% | % residual kinase activity [8]: 98% | % residual kinase activity [9]: 101% | % residual kinase activity [10]: 83% | % residual kinase activity [11]: 103% | Cell Proliferation IC50 (LP-1): 1.9 µM | % residual kinase activity [12]: 102% | % residual kinase activity [13]: 88% | % residual kinase activity [14]: 100% | % residual kinase activity [15]: 7% | % residual kinase activity [16]: 103% | % residual kinase activity [17]: 92% | % residual kinase activity [18]: 98% | Cell Proliferation IC50 (PANC-1): 17.1 µM | % residual kinase activity [19]: 104%
